These results are taken from US10197560B2 (priority 2013, dated 2019).

“Also recorded” adds a separate entry of the source.

Assay [1] relates to phagosomal acidification. The settings on record: synthetic tuberculosinols coupled to beads; reference (21); cited from earlier work.
The target of assay [2] is T1, recombinant Rv3378c protein (Mycobacterium tuberculosis, UniProt P9WJ61).
T1 construct: hexahistidine (His6) tag from pET-28b, thrombin-cleavable (N, cleaved yes); made in house; host or cells: E. coli BL21-CodonPlus, co-expressed with GroES/GroEL chaperones
T1 sequence (P9WJ61 1-296): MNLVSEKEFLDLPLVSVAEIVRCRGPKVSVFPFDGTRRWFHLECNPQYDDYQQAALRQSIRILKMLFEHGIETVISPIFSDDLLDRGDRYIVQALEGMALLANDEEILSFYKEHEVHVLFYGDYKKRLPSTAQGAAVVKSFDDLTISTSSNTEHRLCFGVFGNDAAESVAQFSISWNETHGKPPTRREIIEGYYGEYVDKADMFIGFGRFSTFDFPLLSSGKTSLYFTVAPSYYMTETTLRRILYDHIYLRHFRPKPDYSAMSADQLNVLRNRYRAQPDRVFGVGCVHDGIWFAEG
In words: Rv3378c enzymatic assays (tuberculosinyl transferase, HPLC-MS detection of 1-TbAd). It is filed as biochemical, M. tuberculosis. As to conditions: pH 7.4.

Take `C/C(=C\CO)CC[C@@]1(C)[C@@H]2CCCC(C)(C)C2=CC[C@@H]1C` [tuberculosinols, tuberculosinol]: the “effect on phagosomal acidification” value in assay [1] was “block phagosomal acidification”.
As to `CC(C)=CCC/C(C)=C/CC/C(C)=C/CC/C(C)=C/COP(=O)(O)OP(=O)(O)O` [GGPP, geranylgeranyl pyrophosphate], the “product formation by Rv3378c from diterpene pyrophosphate substrate and adenosine” value in assay [2] is “little or no product; also recorded: does not act on GGPP”.
With tuberculosinyl pyrophosphate [TbPP], in assay [2], the “product formation by Rv3378c from diterpene pyrophosphate substrate and adenosine” value is “catalyzed the condensation of adenosine and TbPP to generate 1-TbAd”.
